Results taken from patent US6638964B2, “Sulfonamide-containing indole compounds” (Eisai Co., Ltd., priority 1999, dated 2003).
Converted amounts (≈) assume the structure as drawn.

How the values were obtained:
[1] = tested on: KP-1 cell strain derived from human pancreatic cancer; assay: Antitumor effect, KP-1 human pancreatic cancer subcutaneously transplanted to nude mice; type: in vivo, nude mice (KSN); conditions: for size of the tumor compared with that in the group to which no drug was administered: 22nd day, KP-1
Procedure: (§1) In the meanwhile, evaluation of an antitumor effect was carried out in accordance with a method of Koyanagi, et al. (Cancer Res., 94, 1702-1706, 1994) using a KP-1 cell strain derived from human pancreatic cancer and an HCT 116 cell strain derived from human cancer of the colon. The above-mentioned human cancer cells (5^×10^6 cells) were subcutaneously transplanted to nude mice (KSN) of 6 to 7 weeks age and, since the stage where it became to the size of about 100 mm^3, administration of the compound of the present invention was started. In the experiments, ten mice were used for a group to which no drug was administered while, in a drug-administered group, five mice were used for each dose. The dose of 50 mg/kg, 100 mg/kg or 200 mg/kg was continuously administered per os two times a day and the size of the tumor on the 22nd day from the beginning of the administration was compared with that in the group to which no drug was administered. The result was 37%, 30% and 11%, respectively in the KP-1 cell strain derived from human pancreatic cancer and 0.2%, 0.3% and 0.0%, respectively in the HCT 116 cell strain derived from human cancer of the colon in the case of a group to which the compound of Example 1 was administered for example.

[2] = tested on: aorta pieces of rat; assay: Antiangiogenic effect: capillary formation from rat aorta pieces incubated in collagen; type: cell-based; conditions: numbers of capillaries formed around the aorta, 7th day from addition of test compound
Procedure: The inhibition degree of angiogenesis which was observed when aorta pieces of rat were incubated in collagen was defined as an antiangiogenic effect. That is, the aorta excised from male rat of Sprague-Dawley strain (10-12 weeks age) was washed with a Hanks' solution so that fat tissues around there were removed minutely. The aorta was incised to prepare pieces of 2 mm square and they were allowed to stand in a 24-well plate holding the endothelial cells upside. Then, 500 μl of neutralized Type I collagen (Cell Matrix Type I-A; manufactured by Nitta Gelatin) were poured over each well and allowed to stand at room temperature for about 20 minutes in a clean bench to solidify the gel. After confirming that the gel was solidified, 500 μl of MCDB 131 medium (manufactured by Chlorella Kogyo) were added thereto followed by incubating in a CO2 incubator (5% CO2) at 37° C. On the next day, the culture medium was exchanged with 500 μl of MCDB 131 medium containing the test compound and the incubation was continued. After three days, the medium was again exchanged with 500 μl of MCDB 131 medium containing the test compound and, at the stage of the 7th day from the initiation of addition of the test compound, numbers of capillaries formed around the aorta were counted under a microscope. The solution containing the test compound was prepared in a three-fold dilution system where 10 μg/ml was the highest concentration.
Inhibiting rate was calculated from the following formula and 50% inhibiting concentration (IC50) for each test compound was determined.
(§2) Inhibiting Rate (%)=(C−T)/C^×100
C: Numbers of capillaries when no compound was added
T: Numbers of capillaries when a compound was added

[3] = tested on: Endothelial cells derived from human umbilical vein (HUVEC); assay: Inhibitory effect of growth of endothelial cells (MTT method); type: cell-based; conditions: 72 h, incubating for three days
Procedure: Endothelial cells derived from human umbilical vein (HUVEC; manufactured by Sanko Junyaku) incubated in an EGM medium (manufactured by Sanko Junyaku) containing 100 Units of penicillin and 100 μg/ml of streptomycin were adjusted to 0.8-1×10^4 cells/ml and each 100 μl were separately placed on a 96-well plate. After incubating in a CO2 incubator (5% CO2) at 37 ° C. overnight, 100 μl of EGM medium containing test compound diluted in a three-fold manner were added thereto followed by incubating for three days. The cell numbers at that time were measured by MTT method. That is, 50 μl of phosphate buffer containing 0.33% of 3-(4,5-dimethylthiazol-2-yl)-2,5-diphenyltetrazolium bromide (MTT) was added thereto and incubation was continued for 3-4 hours. Then, after the supernatant liquid of the culture was removed, 100 μl of dimethyl sulfoxide (DMSO) was added to dissolve a formazane which was formed in the cells and the absorbance at the wave length of 540 nm was measured by use of plate reader (manufactured by Corona Denki).
(§3) Inhibiting rate was calculated from the following formula and 50% inhibiting concentration (IC50) was determined for each compound.
Inhibition Rate (%)=(C−T)/C×100
(§4) C: Absorbance when no compound was added
(§5) T: Absorbance when a compound was added

[4] = tested on: Mouse B16 melanoma cells; assay: Inhibitory effect of proliferation of mouse B16 melanoma (MTT method); type: cell-based; conditions: 72 h, incubating for 3 days
Procedure: Mouse B16 melanoma cells incubated in a Dulbecco-modified Eagle medium (DMED; manufactured by Nissui Seiyaku) containing 10% of fetal bovine serum, 100 Units/ml of penicillin and 100 μg/ml of streptomycin were adjusted to 2^×10^4 cells/ml and each 100 μl thereof were separately placed on a 96-well plate. After an incubation was carried out in a CO2 incubator (5% CO2) at 37° C. for one night, then 100 μl of the above culture containing a test compound diluted in a 3-fold series were added thereto followed by incubating for 3 days and the cell numbers at that time were measured by an MTT method. Incidentally, a treatment with a 0.33% MTT solution was carried out for 1-2 hour(s).
as §3, §2, §4, §5

[5] = tested on: HCT 116 cell strain derived from human cancer of the colon; assay: Antitumor effect, HCT 116 human colon cancer subcutaneously transplanted to nude mice; type: in vivo, nude mice (KSN); conditions: 22nd day
Procedure: as §1

[6] = 50 mg/kg per os two times a day
[7] = 100 mg/kg per os two times a day
[8] = 200 mg/kg per os two times a day

Row | Structure (SMILES) | size of the tumor compared with that in the group to which no drug was administered [1, 6] [%] | size of the tumor compared with that in the group to which no drug was administered [1, 7] [%] | size of the tumor compared with that in the group to which no drug was administered [1, 8] [%] | antitumor effect ([1]; overall statement for KP-1 and HCT 116 transplanted nude mice) | IC50 [2] [µg/mL] | IC50 [3] [µg/mL] | IC50 [4] [µg/mL] | size of the tumor compared with that in the group to which no drug was administered [5, 6] [%] | size of the tumor compared with that in the group to which no drug was administered [5, 7] [%] | size of the tumor compared with that in the group to which no drug was administered [5, 8] [%]
1 | Cc1ccc(NS(=O)(=O)c2cccc(C#N)c2)c2[nH]cc(C#N)c12 [Example 1, 3-Cyano-N-(3-cyano-4-methyl-1H-indol-7-yl)benzenesulfonamide] | 37 | 30 | 11 | significant antitumor effect | 0.08 (≈ 0.238 µM) | 0.1 (≈ 0.297 µM) | 10 (≈ 29.7 µM) | 0.2 | 0.3 | 0.0
2 | Cc1ccc(NS(=O)(=O)c2ccc(Cl)nc2)c2[nH]cc(C#N)c12 [Example 2, 6-Chloro-N-(3-cyano-4-methyl-1H-indol-7-yl)-3-pyridinesulfonamide] | – | – | – | – | 0.07 (≈ 0.202 µM) | 0.12 (≈ 0.346 µM) | 15 (≈ 43.3 µM) | – | – | –
3 | Cc1cc(NS(=O)(=O)c2ccc(S(N)(=O)=O)cc2)c2[nH]cc(Br)c2c1 [Example 3, N-(3-Bromo-5-methyl-1H-indole-7-yl)-4-sulfamoylbenzenesulfonamide] | – | – | – | – | 0.1 (≈ 0.225 µM) | 0.62 (≈ 1.4 µM) | 21 (≈ 47.3 µM) | – | – | –
4 | Nc1ccc(S(=O)(=O)Nc2cc(Br)cc3c(Cl)c[nH]c23)cn1 [Example 4, 6-Amino-N-(5-bromo-3-chloro-1H-indole-7-yl)-3-pyridinesulfonamide] | – | – | – | – | 0.1 (≈ 0.249 µM) | 1.3 (≈ 3.24 µM) | 19 (≈ 47.3 µM) | – | – | –
5 | Cc1cc(NS(=O)(=O)c2cccc(C#N)c2)c2[nH]cc(Br)c2c1 [Example 5, N-(3-Bromo-5-methyl-1H-indole-7-yl)-3-cyanobenzenesulfonamide] | – | – | – | – | 0.15 (≈ 0.384 µM) | 0.98 (≈ 2.51 µM) | 8.8 (≈ 22.5 µM) | – | – | –
6 | N#Cc1ccc(S(=O)(=O)Nc2ccc(Br)c3cc[nH]c23)cc1 [Example 6, N-(4-Bromo-1H-indole-7-yl)-4-cyanobenzenesulfonamide] | – | – | – | – | 0.06 (≈ 0.159 µM) | 1.2 (≈ 3.19 µM) | 6.5 (≈ 17.3 µM) | – | – | –
7 | Nc1ccc(S(=O)(=O)Nc2ccc(Cl)c3cc[nH]c23)cn1 [Example 7, 6-Amino-N-(4-chloro-1H-indole-7-yl)-3-pyridinesulfonamide] | – | – | – | – | 0.42 (≈ 1.3 µM) | 0.98 (≈ 3.04 µM) | 7.5 (≈ 23.2 µM) | – | – | –
8 | Nc1ccc(S(=O)(=O)Nc2ccc(Cl)c3c(Br)c[nH]c23)cn1 [Example 8, 6-Amino-N-(3-bromo-4-chloro-1H-indole-7-yl)-3-pyridinesulfonamide] | – | – | – | – | 0.05 (≈ 0.124 µM) | 0.49 (≈ 1.22 µM) | 19 (≈ 47.3 µM) | – | – | –
9 | Cc1cc(NS(=O)(=O)c2ccc(C#N)s2)c2[nH]cc(Br)c2c1 [Example 9, N-(3-Bromo-5-methyl-1H-indole-7-yl)-5-cyano-2-thiophenesulfonamide] | – | – | – | – | 0.05 (≈ 0.126 µM) | 1.6 (≈ 4.04 µM) | 8.4 (≈ 21.2 µM) | – | – | –
10 | Nc1ncc(S(=O)(=O)Nc2ccc(Br)c3c(Cl)c[nH]c23)cn1 [Example 10, 2-Amino-N-(4-bromo-3-chloro-1H-indole-7-yl)-5-pyrimidinesulfonamide] | – | – | – | – | 0.06 (≈ 0.149 µM) | 0.38 (≈ 0.944 µM) | 23 (≈ 57.1 µM) | – | – | –
